{"source": "paper PMC9852063", "about": "(Molecular carcinogenesis, 2022)", "biological_target": "T1, Doublecortin like kinase 1 (DCLK1) (Homo sapiens, UniProt O15075)", "T1 sequence (O15075 1-740)": "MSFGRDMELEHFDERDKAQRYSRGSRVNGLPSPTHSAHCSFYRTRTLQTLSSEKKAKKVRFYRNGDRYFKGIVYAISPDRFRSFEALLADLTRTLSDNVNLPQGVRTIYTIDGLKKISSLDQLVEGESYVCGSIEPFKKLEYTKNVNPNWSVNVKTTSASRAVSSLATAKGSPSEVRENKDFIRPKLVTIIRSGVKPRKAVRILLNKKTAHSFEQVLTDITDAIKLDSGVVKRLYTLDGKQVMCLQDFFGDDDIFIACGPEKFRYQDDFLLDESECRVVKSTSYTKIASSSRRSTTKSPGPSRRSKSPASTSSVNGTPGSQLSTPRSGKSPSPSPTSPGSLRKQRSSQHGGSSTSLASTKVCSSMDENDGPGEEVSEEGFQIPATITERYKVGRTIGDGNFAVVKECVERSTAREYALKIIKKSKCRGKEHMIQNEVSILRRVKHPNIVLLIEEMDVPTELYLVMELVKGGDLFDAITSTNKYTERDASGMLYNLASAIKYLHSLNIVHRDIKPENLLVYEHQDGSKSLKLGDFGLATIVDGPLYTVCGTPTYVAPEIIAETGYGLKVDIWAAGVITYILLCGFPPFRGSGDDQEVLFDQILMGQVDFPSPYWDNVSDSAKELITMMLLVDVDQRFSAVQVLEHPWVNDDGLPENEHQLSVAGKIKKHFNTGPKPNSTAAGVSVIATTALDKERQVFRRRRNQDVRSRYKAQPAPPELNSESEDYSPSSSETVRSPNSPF", "assay": "SPR with immobilized recombinant DCLK1", "assay_type": "binding", "data": [{"smiles": "O=C1C(=Cc2ccc(F)cc2F)CNCC1=Cc1ccc(F)cc1F", "note": "[DiFiD, 3,5-bis (2,4-difluorobenzylidene)-4-piperidone]", "values": [{"measurement": "Kd", "value": 71, "unit": "nM"}]}]}
